US20240010683A1, “Peptide Inhibitors of Human Mitochondrial Fission Protein 1 and Methods of Use” (The Medical College of Wisconsin, Inc., priority 2020, published 2024)
“Also recorded” adds a separate entry of the source.

Legend:
[1] = test system: human resistance arteries; test: Endothelium-dependent vasodilation to acetylcholine, resistance arteries from healthy subjects exposed to high or low glucose; conditions: for impaired endothelium-dependent vasodilation to acetylcholine: high glucose 33 mM six hours, 1-10 μM peptide
Source text: (§1) Human Resistance Artery Acquisition: Human resistance arteries from adipose samples were obtained from the upper outer quadrant of the gluteal adipose pad as previously described.^2,8,13,15,16 Briefly, following sterilization and anesthesia with 1% lidocaine, a 1-1.5 cm incision is made in the upper outer quadrant of the gluteal adipose pad. An approximately 8 cm^3 volume of adipose tissue was removed by sharp dissection. After achieving hemostasis, the wounds were closed with 1-2 absorbable deep dermal sutures and the epidermal layer closed using either Dermabond or steristrips.
(§2) Transfection of human resistance arteries with siRNA constructs was performed as previously described.^8,13 Briefly, resistance arteries dissected from adipose tissue were suspended in a culture myograph chamber (204 CM, DMT, Ann Arbor). One end of the vessel was sutured onto a glass pipette within a micro-organ chamber. Prior to suturing the second end of the arteriole to a glass pipette, Fis1 siRNA, Drp1 siRNA (20 nM in optiMEM using Lipofectamine RNAiMax, Invitrogen) or control scrambled siRNA (20 nM) were gently injected, into the vessel lumen. The loose end of the vessel is then tied onto another glass pipette, and the vessel is suspended in the chamber and placed on a myograph stage bathed in physiological buffer at 37° C. and pressurized to 60 mmHg. Following 4-6 hours of incubation, the siRNA is slowly washed out of the lumen over 24 hours at a low shear rate (□<5 dyn/cm^2).
(§3) Measurement of Endothelium-Dependent Vasoactivity: Transfected resistance arteries from healthy individuals were exposed to either normal glucose conditions (NG, glucose level 5 mM), 2 hours of low glucose (LG, glucose level 2.5 mM) or 6 hours of high glucose (HG, glucose level 33 mM). All studies in vessels from patients with T2DM were performed at 5 mM glucose. Vessels were pre-constricted approximately 50% of resting diameter with endothelin-1 (Sigma Aldrich, USA). The constricted arterioles are then exposed to acetylcholine (Ach) at serially increasing doses from 10^−10 to 10^−5 M, and changes in vessel diameter were measured using digital calipers and videomicroscopy. Following the 10^−5 M dose, vessels were exposed to 200 μM papaverine to test the smooth muscle reactivity. Following a 30-minute washout period, the same arterioles were re-constricted and incubated with L-NG-nitroarginine methyl ester (L-NAME, 100 μM), a direct inhibitor of nitric oxide synthase, for 30 minutes and vasodilation subsequently was remeasured following the exposure to Ach 10^−10 to 10^−5 M.

[2] = test system: vessels from T2DM subjects; test: Endothelium-dependent vasodilation to acetylcholine, resistance vessels from T2DM subjects; parameters: species or system human; conditions: for impaired endothelium-dependent vasodilation to acetylcholine: 5 mM glucose, 1 or 10 μM peptide
Source text: as §1, §2, §3

[3] = test system: resistance arterioles from healthy humans over-expressing Fis1 in the endothelium; test: Endothelium-dependent vasodilation in resistance arterioles over-expressing Fis1; parameters: species or system human; conditions: 1 μM peptide, one hour of exposure
Description: FIG. 19. Pep213 can reverse impaired endothelium-dependnet vasodilation in resistance arterioles. One hour of exposure to pep213 attached to a tat sequence to improve cell penetration (1 μM pep213-tat) reverses impaired endothelium-dependent vasodilation in resistance arterioles from healthy humans over-expressing Fis1 in the endothelium (overexpression of human Fis1 achieved using lentiviral vector to transfect the vessel with a plasmid for endothelial-specific over-expression of human Fis1). 1 μM of a scrambled peptide using the same amino acids as pep213 in a random order has no effect on endothelium dependent vasodilation to acetylcholine. Pep213-tat induce improves endothelium-dependent vasodilation in an eNOS-dependent manner (as determined by the loss in acetylcholine induced endothelium-dependent vasodilation with the use of eNOS inhibitor L-NAME). N=5, P<0.001 overall. *P<0.05 at the indicated doses of acetylcholine. Ach-acetylcholine.
Further the peptide of the present invention, e.g., Pep213, can reverse impaired endothelium-dependent vasodilation in resistance arterioles. […] Pep213-tat induce improves endothelium-dependent vasodilation in an eNOS-dependent manner (as determined by the loss in acetylcholine induced endothelium-dependent vasodilation with the use of eNOS inhibitor L-NAME). […]

[4] = test system: human microvascular endothelial cells (HMVEC); test: NO bioavailability (DAF2-DA) in endothelial cells treated with peptide; format: cell-based; conditions: 1 μM peptide, one hour, 37° C.
Description: FIG. 17. The bioavailability of nitric oxide (NO) increased in human microvascular endothelial cells (HMVEC) treated with novel peptide pep213. HMVEC cells were treated with 1 μM pep213-tat for one hour at 37° C. and NO was measured with diaminofluorescein-2 diacetate (DAF2-DA) staining. N=3,* P=0.04.
(§4) Cells in Culture: To measure nitric oxide (NO) bioavailability in HMEC-1 cells and arterioles, a fluorescent NO marker, 4,5-diaminofluorescein diacetate (DAF2-DA from Cayman Chemical) was used. In a dark room, cells were incubated with or without 100 μM L-NAME for 2 hours followed by 15 minutes of incubation with DAF2-DA (5 μM) at 37° C. Fluorescence intensity was measured using a SPECTRAFluor Plus plate reader (Tecan, Morrisville, NC) using excitation and emission wavelengths of 485 nm and 535 nm, respectively. […] The arterioles were then washed with PBS buffer, mounted on a slide, and imaged by fluorescence microscopy. Untreated and unstained arterioles were used as controls for fluorescence background interference. Both treated and control vessels were measured using the same gain settings and the results were analyzed using Meta Morph 7.8 software (Universal imaging, West Chester, PA).

[5] = test system: human resistance arteries; test: NO bioavailability (DAF2-DA fluorescence) in human resistance arteries; conditions: healthy vessels, HG and LG
Description: as §4, with “respectively. Human Resistance Arteries: Two vessels were obtained from a subset of healthy subjects and each vessel was cut in half to allow for four experimental conditions which included transfection with Fis1 siRNA or Drp1 siRNA with and without concomitant exposure to L-NAME for 30 minutes and transfection with scrambled siRNA control with and without concomitant exposure to L-NAME at room temperature.” for “respectively.”

cardiac myocytes = conditions: rat model of T2DM (OLEFT), cited from earlier work
ApoE knockout mice = conditions: cited from earlier work
[6] = test system: aortic endothelium of diabetic mice; conditions: cited from earlier work
HMEC-1 cells = test: NO production and eNOS activation in HMEC-1 cells; format: cell-based, human; conditions: non-transfected HMEC-1 cells
Description: FIG. 14. Phosphorylation of eNOS at Ser1177 and NO production increased in HMEC-1 cells upon activation with Ca+2 ionophore A23187 (A) representative western blot of p-eNOS-Ser1177) and β-actin with and without addition of A23187.(B) Quantitative measure of p-eNOS-(Ser1177) treated with and without A23187 (P=0.03, n=6). (C) NO production as measured using DAF2-DA (5 uM) increased upon addition of A23187 (n=4, P=0.02).
FIG. 15. […] Cells exposed to L-NAME were incubated with L-NAME for 2 hours followed by a 15-minute incubation with DAF2-DA (5 uM) prior to measurement of fluorescence intensity.
as §4, with “In a dark room, cells were incubated with or without 100 μM L-NAME for 2 hours followed by 15 minutes of incubation with DAF2-DA (5 μM) at 37° C.” left out

Compound: YGRKKRRQRRRGSGSGSSHKHDPLPYPHFLL (Synthetic - Pep213 fused to TAT (pep213-TAT))
- papaverine response (smooth muscle reactivity) ([1]; 200 μM papaverine, healthy and T2DM vessels): did not impact
- impaired endothelium-dependent vasodilation to acetylcholine ([1]; healthy vessels): reversed
- impaired endothelium-dependent vasodilation to acetylcholine ([1]; healthy vessels, listed as Pep213-tat): reversed
- impaired endothelium-dependent vasodilation to acetylcholine ([1]; healthy vessels, listed as Tat sequence-linked pep213): improved
- impaired endothelium-dependent vasodilation to acetylcholine ([1]; healthy vessels, listed as pep213-TAT): significant improvement
- impaired endothelium-dependent vasodilation to acetylcholine ([2]; T2DM vessels): reverses
- impaired endothelium-dependent vasodilation to acetylcholine ([2]; T2DM vessels, listed as Pep213-tat): reversed
- impaired endothelium-dependent vasodilation to acetylcholine ([2]; T2DM vessels, listed as Tat sequence-linked pep213): improved
- impaired endothelium-dependent vasodilation to acetylcholine ([2]; T2DM vessels, listed as pep213-TAT): significant improvement
- impaired endothelium-dependent vasodilation to acetylcholine [3]: reverses
- NO bioavailability (DAF2-DA fluorescence) [4]: increased
- NO bioavailability (DAF2-DA fluorescence) ([4]; listed as pep213-TAT): significant increase

Compound: COC(=O)[C@@H](N)CCCNC(=N)N[N+](=O)[O-] [L-NAME, L-NG-nitroarginine methyl ester]
- effect of L-NAME on protective effect of Fis1 siRNA ([1]; healthy vessels, HG and LG): completely blocked
- effect of L-NAME on improvement seen with pep213-tat ([1]; healthy vessels, high glucose, L-NAME 100 μM): abolished the improvements; also recorded: reversed all improvements
- effect of L-NAME on improvement seen with pep213-TAT ([2]; T2DM vessels, L-NAME 100 μM): abolished the improvements
- effect of L-NAME on favorable effect of Fis1 siRNA ([2]; vessels from diabetic subjects): completely attenuated
- effect of L-NAME on Fis1 siRNA increase in DAF2-DA fluorescence [5]: completely abolished

Compound: OC[C@H]1O[C@@H](c2ccc(Cl)c(Cc3ccc(O[C@H]4CCOC4)cc3)c2)[C@H](O)[C@@H](O)[C@@H]1O [Empagliflozin]
- mitochondrial superoxide dismutase, SOD2 (cardiac myocytes; cardiac myocytes): up-regulated
- Fis1 over-expression (cardiac myocytes): reduced
- mitochondrial fission (cardiac myocytes): reduced

Compound: CN(C)C(=N)N=C(N)N [Metformin]
- atherosclerotic formation (ApoE knockout mice): reduces

Compound: N#C[C@@H]1CCCN1C(=O)CNC12CC3CC(CC(O)(C3)C1)C2 [vildagliptin]
- NO production ([6]; aortic endothelium of diabetic mice): increasing
- Drp1 translocation from the cytosol ([6]; diabetic mice): reduces
- ROS production ([6]; diabetic mice): reduces
- expression of Fis1 and Drp1 ([6]; diabetic mice): reduces
- mitochondrial fission ([6]; diabetic mice): reduces

Compound: CNc1ccc2oc(C[C@H]3O[C@@]4(CC[C@H]3C)O[C@H]([C@H](C)C(=O)c3ccc[nH]3)[C@H](C)C[C@H]4C)nc2c1C(=O)O [A23187]
- NO production (DAF2-DA fluorescence intensity) (HMEC-1 cells): significant increase; also recorded: increased
- eNOS phosphorylation at Ser1177 (HMEC-1 cells): significant increase; also recorded: increased
